# Results as given in PMC2935355 (PLoS ONE, 2010).
# Where two headings read alike, the source gives them in different places.
# Molecular target: T1, ClC-7 (Rattus norvegicus, UniProt P51799)
# T1 construct: gene Clcn7; wt rat ClC-7 with C-terminal EGFP fusion; with Ostm1 (mouse)
# T1 sequence (P51799 1-803): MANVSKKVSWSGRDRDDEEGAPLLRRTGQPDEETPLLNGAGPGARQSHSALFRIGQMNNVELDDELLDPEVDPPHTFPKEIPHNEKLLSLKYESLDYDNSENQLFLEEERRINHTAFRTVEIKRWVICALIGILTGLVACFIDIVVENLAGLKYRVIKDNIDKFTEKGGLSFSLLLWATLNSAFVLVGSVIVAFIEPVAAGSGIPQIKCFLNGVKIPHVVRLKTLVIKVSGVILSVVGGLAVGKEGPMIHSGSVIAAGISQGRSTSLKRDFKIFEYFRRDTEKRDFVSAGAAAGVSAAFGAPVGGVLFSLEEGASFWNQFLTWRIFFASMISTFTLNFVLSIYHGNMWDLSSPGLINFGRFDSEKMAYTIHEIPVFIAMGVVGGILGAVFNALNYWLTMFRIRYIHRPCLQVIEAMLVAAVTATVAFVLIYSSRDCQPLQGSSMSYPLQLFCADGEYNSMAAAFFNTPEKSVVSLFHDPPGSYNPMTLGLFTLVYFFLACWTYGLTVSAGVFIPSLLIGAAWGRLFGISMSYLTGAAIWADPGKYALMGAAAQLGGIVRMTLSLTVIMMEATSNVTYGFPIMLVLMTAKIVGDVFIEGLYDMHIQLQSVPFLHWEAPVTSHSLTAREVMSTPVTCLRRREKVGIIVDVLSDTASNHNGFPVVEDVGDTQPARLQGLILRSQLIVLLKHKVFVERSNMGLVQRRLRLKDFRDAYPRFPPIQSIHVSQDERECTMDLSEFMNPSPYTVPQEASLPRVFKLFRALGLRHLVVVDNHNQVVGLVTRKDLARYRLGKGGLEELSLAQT
# T1 sequence (Q8BGT0 35-338 partner): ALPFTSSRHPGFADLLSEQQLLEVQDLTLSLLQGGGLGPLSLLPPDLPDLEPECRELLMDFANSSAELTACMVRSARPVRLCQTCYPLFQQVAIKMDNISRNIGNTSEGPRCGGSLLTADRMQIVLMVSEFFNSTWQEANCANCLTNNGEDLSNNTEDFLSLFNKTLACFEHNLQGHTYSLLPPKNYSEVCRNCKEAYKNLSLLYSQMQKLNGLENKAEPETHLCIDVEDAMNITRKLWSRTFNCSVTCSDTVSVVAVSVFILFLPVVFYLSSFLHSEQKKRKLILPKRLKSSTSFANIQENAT
# Experiment: SSM-based electrophysiology on lysosomal membrane fraction of CHO cells, […] NaCl jump
# Format: biochemical
compound,measurement,setting,value
"O=S(=O)(O)c1cc(N=C=S)ccc1C=Cc1ccc(N=C=S)cc1S(=O)(=O)O [compound 1, 4,4′-diisothiocyanatostilbene-2,2′-disulfonic acid]",IC50,read-out: IC50,39 ± 3.8 µM
"O=C(O)c1cc([N+](=O)[O-])ccc1NCCCc1ccccc1 [compound 3, 5-nitro-2-(3-phenylpropylamino)benzoic acid]",IC50,,156 ± 7.8 µM
NS5818 [compound 2],IC50,read-out: IC50,52 ± 8 µM
